Test results taken from ChEMBL document CHEMBL1201862, “PubChem BioAssay data set” (2004).
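1) Cells in 96-well plates. 2) Compound, 48 h, 5 concentrations. 3) Linear interpolation between surrounding doses. 4) Unreached endpoint = highest concentration. GI50 marks 50% less growth.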 Calls of active or inactive are those of the source. Rule as the data show it: active = GI50 up to about 1.1 µM and inactive = higher.

Legend:
Test in all cases: NCI anticancer screen, dose series, 48 h
[1] = test system: 786-0
[2] = test system: SF-268
[3] = test system: SF-295
[4] = test system: SN12C
[5] = test system: LOX IMVI
[6] = test system: U-251
[7] = test system: Hs-578T
[8] = test system: ACHN
[9] = test system: TK-10
[10] = test system: NCI-H522
[11] = test system: MCF7
[12] = test system: OVCAR-4
[13] = test system: CAKI-1
[14] = test system: NCI/ADR-RES
[15] = test system: A498
[16] = test system: NCI-H226
[17] = test system: K562
[18] = test system: NCI-H460
[19] = test system: SK-OV-3
[20] = test system: BT-549

Measured: GI50

C=C/C(C)=C\CC1[C@](C)(O)CC[C@H]2C(C)(C)C(O)CC[C@]12C (stereo partly drawn)
inactive: [1] > 100 µM | [2] > 100 µM | [3] > 100 µM | [4] > 100 µM | [5] > 100 µM | [6] > 100 µM | [7] > 100 µM | [8] > 100 µM | [9] > 100 µM | [10] 91.4 µM | [11] 70.1 µM | [12] > 100 µM | [13] > 100 µM | [14] > 100 µM | [15] > 100 µM | [16] > 100 µM | [17] 34.4 µM | [18] 78.2 µM

O=C(O)CCCc1ccc2c(c1)CC1(C2)Cc2cc3c(cc2C1)CCCC3
inactive: [1] 28.6 µM | [19] 24.7 µM | [3] 23.9 µM | [4] 22.1 µM | [5] 17.7 µM | [6] 16.7 µM | [7] > 100 µM | [8] 17 µM | [9] 42.7 µM | [10] 19.2 µM | [11] 39.4 µM | [12] 19.5 µM | [14] 31.8 µM | [15] 17.1 µM | [16] 31.6 µM | [17] 11.2 µM

CCOC(=O)c1c(-c2ccccc2)nc2ccccc2c1O
inactive: [1] > 100 µM | [19] > 100 µM | [2] > 100 µM | [3] > 100 µM | [6] > 100 µM | [7] > 100 µM | [8] > 100 µM | [9] > 100 µM | [11] > 100 µM | [12] > 100 µM | [13] > 100 µM | [14] > 100 µM | [15] > 100 µM | [17] > 100 µM | [18] > 100 µM

COC(=O)CCC1=C(CC(=O)OC)C(C)(OC)N/C1=N/C(=O)OCc1ccccc1 (stereo not drawn)
inactive: [1] > 100 µM | [19] > 100 µM | [2] > 100 µM | [3] > 100 µM | [4] > 100 µM | [5] > 100 µM | [20] > 100 µM | [6] > 100 µM | [8] > 100 µM | [9] > 100 µM | [10] > 100 µM | [11] > 100 µM | [12] > 100 µM | [13] > 100 µM | [14] > 100 µM | [15] > 100 µM | [16] > 100 µM | [17] > 100 µM | [18] > 100 µM
